In the OligoGym collection:
“And” between values parts separate entries of the source, which are not always exact repeats. Identical values can stand only once. After the bases stand the sugars from the 5' end (letter, count) and the backbone: PS all phosphorothioate, else s phosphorothioate and o phosphodiester by linkage. Methylation of C is not given here. e = 2'-O-(2-methoxyethyl) (MOE); k = constrained ethyl (cEt); d = 2'-deoxy (DNA)

Biological target: IRF4
Conditions: ASO

Sequence | target mRNA inhibition (MM.1R, 1 µM) | target mRNA inhibition (SK-MEL-28, 4 µM) [%] | also measured
ACTGCTTGAGGTTTTC (sugars kdddddddddkekeke, PS) | 21% | – | –
GTGTCTAAAGTCCCAT (sugars kkdddddddddekeke, PS) | 32% and 23% | – | –
GTGCTCTTACAGCCTC (sugars k3 d10 k3, PS) | -15% | – | –
TTAAAGAGTGGTACAC (sugars k3 d10 k3, PS) | – | 6 | –
TCCTTTGGGTGCTTTC (sugars k3 d10 k3, PS) | – | 32 | –
GCCTAGGACTAAGGAC (sugars k3 d10 k3, PS) | – | 33 | –
GACAAATCTTCTGCCT (sugars k3 d10 k3, PS) | – | 26 | –
GGACGAACGCGCAAAA (sugars k3 d10 k3, PS) | – | 35 | –
AGTGTCTAAAGTCCCA (sugars kddddddddddkekek, PS) | -1% and 3% | – | –
CCTGAACATGACTGGG (sugars k3 d10 k3, PS) | – | 38 | –
CAGTGTGATTAATTCT (sugars k3 d10 k3, PS) | 17% | – | –
AGTGTCTAAAGTCCCA (sugars kkdddddddddkdkdk, PS) | 14% and -5% | – | –
GTGACTTGCATCCATG (sugars k3 d10 k3, PS) | 62% | – | –
TGTTACCGATGCTTCA (sugars kkddddddddddkeke, PS) | 25% and 42% | – | –
TGCTTATCAATGCCAA (sugars k3 d10 k3, PS) | 35% and 31% | 70 | target mRNA inhibition (MM.1R, 0.074 µM): 12%; target mRNA inhibition (MM.1R, 0.222 µM): 12%; target mRNA inhibition (MM.1R, 0.666 µM): 16%; target mRNA inhibition (MM.1R, 2 µM): 50%; target mRNA inhibition (MM.1R, 4 µM): 69% and 66%
CTGTAGGATTTTACAT (sugars k3 d10 k3, PS) | – | 24 | –
TGTCACCTGGCAACCT (sugars k3 d10 k3, PS) | -4% | – | –
GTTGAAAGAACCAAGC (sugars k3 d10 k3, PS) | – | 11 | –
ACTGTATGGAACCCCA (sugars k3 d10 k3, PS) | 30% | – | –
ACCCAGCTAATGAGAG (sugars k3 d10 k3, PS) | – | 35 | –
AGCAAGAGCTTACTGT (sugars k3 d10 k3, PS) | -6% | – | –
CACATTTGAGAGCTAC (sugars k3 d10 k3, PS) | – | 74 | –
GGCCTTTACAAAGAAC (sugars k3 d10 k3, PS) | – | -19 | –
TATCCATGTTGCATGG (sugars k3 d10 k3, PS) | – | 61 | –
ATGGCGGATAGATCTG (sugars k3 d10 k3, PS) | – | 57 | –

Sequence | target mRNA inhibition (MM.1R, 1 µM) | target mRNA inhibition (SK-MEL-28, 4 µM) [%] | also measured
GCCGAAGCATTTTATC (sugars k3 d10 k3, PS) | – | 29 | –
GAGAGCCTTCACGCAC (sugars k3 d10 k3, PS) | – | 23 | –
GCACACACAAGTGGCC (sugars k3 d10 k3, PS) | – | 64 | –
AATCACGAGGTTGCCG (sugars k3 d10 k3, PS) | -6% | – | –
TTCATGTAAAGTCTGC (sugars kkdddddddddekeke, PS) | 32% and 39% | – | –
GTGACCCACATAACTC (sugars k3 d10 k3, PS) | 7% | – | –
TCTGGCTAGCAGAGGT (sugars k3 d10 k3, PS) | 26% | – | –
GGCTGAAACGGTCAGC (sugars k3 d10 k3, PS) | -27% | – | –
TGCTTGAGGTTTTCCT (sugars kkkddddddddkekek, PS) | 27% | – | –
CTTTTTTGGCTCCCTC (sugars k3 d10 k3, PS) | – | 36 | –
TTCATGTAAAGTCTGC (sugars kdddddddddkekeke, PS) | 9% and 3% | – | –
ACGTGTGCTTGCCAAG (sugars k2 d9 e3 k2, PS) | 44% and 43% | – | –
GATAAGAAGCACTGGC (sugars k3 d10 k3, PS) | – | 63 | –
GTTAGCTACAAAGAGC (sugars k3 d10 k3, PS) | – | 41 | –
GAGTGTGCAGTTCCGT (sugars k3 d10 k3, PS) | – | 67 | –
GTGGCATCATGTAGTT (sugars k3 d10 k3, PS) | – | 27 | –
CATCACTGCAGTTCAC (sugars k3 d10 k3, PS) | – | 47 | –
CTGCACTCGCCCTGGA (sugars k3 d10 k3, PS) | – | 42 | –
GGGATTATATACTGGT (sugars k2 d9 e3 k2, PS) | 35% | – | –
GAATGGCGCATAGGTC (sugars k3 d10 k3, PS) | 26% | – | –
TAGAGGAATGGCGGAT (sugars k3 d10 k3, PS) | – | 45 | –
TGGGATTATATACTGG (sugars kkddddddddddkeke, PS) | 68% and 60% | – | target mRNA inhibition (MM.1R, 0.0625 µM): 21%; target mRNA inhibition (MM.1R, 0.25 µM): 43%; target mRNA inhibition (MM.1R, 4 µM): 83%
CATCAATGATGGCAGT (sugars k3 d10 k3, PS) | – | 50 | –
TAACTGTATGGAACCC (sugars k3 d10 k3, PS) | 28% | – | –
